# Assay results from US6689790B2, “Substituted triazolopyridine compounds” (Hoffmann-La Roche Inc., priority 2001, dated 2004).
# Molecular target: T1, human adenosine A2A receptor (Homo sapiens, UniProt P29274)
# T1 construct: expressed in transfected cells; host or cells: CHO cells, semliki forest virus expression system; washed membranes
# Experiment: [3H]-SCH-58261 binding assay, human adenosine A2A receptor (CHO cell membranes, SPA)
# Conditions: [3H]-SCH-58261 displacement; list of examples 10-108; read-out: hA2a Ki
# Protocol: Human Adenosine A2A Receptor
# The human adenosine A2A receptor was recombinantly expressed in chinese hamster ovary (CHO) cells using the semliki forest virus expression system. Cells were harvested, washed twice by centrifugation, homogenized and again washed by centrifugation. The final washed membrane pellet was suspended in a Tris (50 mM) buffer containing 120 mM NaCl, 5 mM KCl, 2 mM CaCl2 and 10 mM MgCl2 (pH 7.4) (buffer A). […] Compounds were tested at 10 concentrations from 10 μM-0.3 nM. All assays were conducted in duplicate and repeated at least two times. Assay plates were incubated for 1 hour at room temperature before centrifugation and then bound ligand determined using a Packard Topcount scintillation counter. IC50 values were calculated using a non-linear curve fitting program and Ki values calculated using the Cheng-Prussoff equation.
# T1 sequence (P29274 whole entry): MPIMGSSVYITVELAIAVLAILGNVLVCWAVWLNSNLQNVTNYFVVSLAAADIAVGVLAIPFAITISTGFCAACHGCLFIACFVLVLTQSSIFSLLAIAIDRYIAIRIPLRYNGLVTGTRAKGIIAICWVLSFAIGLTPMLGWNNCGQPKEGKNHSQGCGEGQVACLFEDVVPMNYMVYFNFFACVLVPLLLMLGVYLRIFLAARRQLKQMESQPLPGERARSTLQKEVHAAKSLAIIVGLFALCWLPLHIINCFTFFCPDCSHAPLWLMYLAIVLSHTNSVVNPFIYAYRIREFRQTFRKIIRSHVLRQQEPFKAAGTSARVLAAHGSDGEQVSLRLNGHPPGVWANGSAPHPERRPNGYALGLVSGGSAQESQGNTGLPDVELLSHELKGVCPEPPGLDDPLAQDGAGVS
row,SMILES,Ki [nM]
1,"COC[C@@H]1CCCN1C(=O)c1cc(N)c2nc(-c3ccccc3)nn2c1 [Example 74, (8-Amino-2-phenyl-[1,2,4]triazolo[1,5-a]pyridin-6-yl)-(2-methoxymethyl-pyrrolidin-1-yl)-methanone]",196
2,"Cc1ccc(-c2nc3c(N)cc(C(=O)N4CCSCC4)cn3n2)o1 [Example 90, [8-Amino-2-(5-methyl-furan-2-yl)-[1,2,4]triazolo[1,5-a]pyridin-6-yl]-thiomorpholin-4-yl-methanone]",140
3,"CN(C)C(=O)CN(C)C(=O)c1cc(N)c2nc(-c3ccco3)nn2c1 [Example 44, 8-Amino-2-furan-2-yl-[1,2,4]triazolo[1,5-a]pyridine-6-carboxylic acid dimethylcarbamoyl-methyl-methyl-amide]",343
4,"Cc1ccc(-c2nc3c(N)cc(C(=O)N4CCCC4)cn3n2)s1 [Example 94, [8-Amino-2-(5-methyl-thiophen-2-yl)-[1,2,4]triazolo[1,5-a]pyridin-6-yl]-pyrrolidin-1-yl-methanone]",213
5,"CC1CCCN1C(=O)c1cc(N)c2nc(-c3ccccn3)nn2c1 (stereo not shown) [Example 28, (8-Amino-2-pyridin-2-yl-[1,2,4]triazolo[1,5-a]pyridin-6-yl)-(2-methyl-pyrrolidin-1-yl)-methanone]",369
6,"CCN(CC)C(=O)C1CCCN(C(=O)c2cc(N)c3nc(-c4ccco4)nn3c2)C1 (stereo not shown) [Example 40, 1-(8-Amino-2-furan-2-yl-[1,2,4]triazolo[1,5-a]pyridine-6-carbonyl)-piperidine-3-carboxylic acid diethylamide]",371
7,"CC1CCCCN1C(=O)c1cc(N)c2nc(-c3cccs3)nn2c1 (stereo not shown) [Example 55, (8-Amino-2-thiophen-2-yl-[1,2,4]triazolo[1,5-a]pyridin-6-yl)-(2-methyl-piperidin-1-yl)-methanone]",260
8,"CCCCN(C)C(=O)c1cc(N)c2nc(-c3nccs3)nn2c1 [Example 106, 8-Amino-2-thiazol-2-yl-[1,2,4]triazolo[1,5-a]pyridine-6-carboxylic acid butyl-methyl-amide]",844
9,"CCN(CCOC)C(=O)c1cc(N)c2nc(-c3ccc(C)o3)nn2c1 [Example 87, 8-Amino-2-(5-methyl-furan-2-yl)-[1,2,4]triazolo[1,5-a]pyridine-6-carboxylic acid ethyl-(2-methoxy-ethyl)-amide]",104
10,"CCCN(C)C(=O)c1cc(N)c2nc(-c3ccccc3)nn2c1 [Example 79, 8-Amino-2-phenyl-[1,2,4]triazolo[1,5-a]pyridine-6-carboxylic acid methyl-propyl-amide]",886
11,"Nc1cc(C(=O)N2CCCCC2)cn2nc(-c3cccs3)nc12 [Example 52, (8-Amino-2-thiophen-2-yl-[1,2,4]triazolo[1,5-a]pyridin-6-yl)-piperidin-1-yl-methanone]",353
12,"CCCN(C)C(=O)c1cc(N)c2nc(-c3ccc(C)o3)nn2c1 [Example 89, 8-Amino-2-(5-methyl-furan-2-yl)-[1,2,4]triazolo[1,5-a]pyridine-6-carboxylic acid methyl-propyl-amide]",178
13,"CCCN(CCC)C(=O)c1cc(N)c2nc(-c3cccs3)nn2c1 [Example 54, 8-Amino-2-thiophen-2-yl-[1,2,4]triazolo[1,5-a]pyridine-6-carboxylic acid dipropylamide]",552
14,"Nc1cc(C(=O)N2CCSCC2)cn2nc(-c3cccs3)nc12 [Example 66, (8-Amino-2-thiophen-2-yl-[1,2,4]triazolo[1,5-a]pyridin-6-yl)-thiomorpholin-4-yl-methanone]",982
15,"CN(CCc1ccccc1)C(=O)c1cc(N)c2nc(-c3cccs3)nn2c1 [Example 67, 8-Amino-2-thiophen-2-yl-[1,2,4]triazolo[1,5-a]pyridine-6-carboxylic acid methyl-phenethyl-amide]",395
16,"CCN(CC)C(=O)C1CCCN(C(=O)c2cc(N)c3nc(-c4cccs4)nn3c2)C1 (stereo not shown) [Example 56, 1-(8-Amino-2-thiophen-2-yl-[1,2,4]triazolo[1,5-a]pyridine-6-carbonyl)-piperidine-3-carboxylic acid diethylamide]",684
17,"Cc1ccc(-c2nc3c(N)cc(C(=O)N(C)CC(=O)N(C)C)cn3n2)s1 [Example 98, 8-Amino-2-(5-methyl-thiophen-2-yl)-[1,2,4]triazolo[1,5-a]pyridine-6-carboxylic acid dimethylcarbamoyl-methyl-methyl-amide]",220
18,"Nc1cc(C(=O)N2CCSCC2)cn2nc(-c3ccco3)nc12 [Example 49, (8-Amino-2-furan-2-yl-[1,2,4]triazolo[1,5-a]pyridin-6-yl)-thiomorpholin-4-yl-methanone]",638
19,"COC[C@H]1CCCN1C(=O)c1cc(N)c2nc(-c3cccs3)nn2c1 [Example 57, (8-Amino-2-thiophen-2-yl-[1,2,4]triazolo[1,5-a]pyridin-6-yl)-(2-R-methoxymethyl-pyrrolidin-1-yl)-methanone]",242

row,SMILES,Ki [nM]
1,"CCN(CC)C(=O)c1cc(N)c2nc(-c3ccco3)nn2c1 [Example 33, 8-Amino-2-furan-2-yl-[1,2,4]triazolo[1,5-a]pyridine-6-carboxylic acid diethylamide]",422
2,"CCN(CC)C(=O)c1cc(N)c2nc(-c3ccc(C)o3)nn2c1 [Example 82, 8-Amino-2-(5-methyl-furan-2-yl)-[1,2,4]triazolo[1,5-a]pyridine-6-carboxylic acid diethylamide]",131
3,"CCCN(CCC)C(=O)c1cc(N)c2nc(-c3ccco3)nn2c1 [Example 38, 8-Amino-2-furan-2-yl-[1,2,4]triazolo[1,5-a]pyridine-6-carboxylic acid dipropylamide]",370
4,"CN(CCc1ccccc1)C(=O)c1cc(N)c2nc(-c3ccco3)nn2c1 [Example 50, 8-Amino-2-furan-2-yl-[1,2,4]triazolo[1,5-a]pyridine-6-carboxylic acid methyl-phenethyl-amide]",251
5,"CC1CCCN(C(=O)c2cc(N)c3nc(-c4ccccc4)nn3c2)C1 (stereo not shown) [Example 78, (8-Amino-2-phenyl-[1,2,4]triazolo[1,5-a]pyridin-6-yl)-(3-methyl-piperidin-1-yl)-methanone]",385
6,"Cc1ccc(-c2nc3c(N)cc(C(=O)N4CCCCC4)cn3n2)s1 [Example 95, [8-Amino-2-(5-methyl-thiophen-2-yl)-[1,2,4]triazolo[1,5-a]pyridin-6-yl]-piperidin-1-yl-methanone]",225
7,"Cc1ccc(-c2nc3c(N)cc(C(=O)N(C)CCc4ccccc4)cn3n2)s1 [Example 103, 8-Amino-2-(5-methyl-thiophen-2-yl)-[1,2,4]triazolo[1,5-a]pyridine-6-carboxylic acid methyl-phenethyl-amide]",309
8,"CCCN(C)C(=O)c1cc(N)c2nc(-c3ccc(C)s3)nn2c1 [Example 101, 8-Amino-2-(5-methyl-thiophen-2-yl)-[1,2,4]triazolo[1,5-a]pyridine-6-carboxylic acid methyl-propyl-amide]",228
9,"CCN(CC)C(=O)c1cc(N)c2nc(-c3ccc(C)s3)nn2c1 [Example 93, 8-Amino-2-(5-methyl-thiophen-2-yl)-[1,2,4]triazolo[1,5-a]pyridine-6-carboxylic acid diethylamide]",322
10,"CCN(CCc1ccccn1)C(=O)c1cc(N)c2nc(-c3cccs3)nn2c1 [Example 65, 8-Amino-2-thiophen-2-yl-[1,2,4]triazolo[1,5-a]pyridine-6-carboxylic acid ethyl-(2-pyridin-2-yl-ethyl)-amide]",718
11,"Nc1cc(C(=O)N2CC=CCC2)cn2nc(-c3ccccc3)nc12 [Example 80, (8-Amino-2-phenyl-[1,2,4]triazolo[1,5-a]pyridin-6-yl)-(3,6-dihydro-2H-pyridin-1-yl)-methanone]",289
12,"Nc1cc(C(=O)N2CCCCC2)cn2nc(-c3ccccn3)nc12 [Example 27, (8-Amino-2-pyridin-2-yl-[1,2,4]triazolo[1,5-a]pyridin-6-yl)-piperidin-1-yl-methanone]",548
13,"CCN(CCOC)C(=O)c1cc(N)c2nc(-c3cccs3)nn2c1 [Example 61, 8-Amino-2-thiophen-2-yl-[1,2,4]triazolo[1,5-a]pyridine-6-carboxylic acid ethyl-(2-methoxy-ethyl)-amide]",920
14,"COCC1CCCN1C(=O)c1cc(N)c2nc(-c3ccc(C)s3)nn2c1 (stereo in doubt) [Example 97, [8-Amino-2-(5-methyl-thiophen-2-yl)-[1,2,4]triazolo[1,5-a]pyridin-6-yl]-((S)2-methoxymethyl-pyrrolidin-1-yl)-methanone]",428
15,"CC1CCCN(C(=O)c2cc(N)c3nc(-c4nccs4)nn3c2)C1 (stereo not shown) [Example 107, (8-Amino-2-thiazol-2-yl-[1,2,4]triazolo[1,5-a]pyridin-6-yl)-(3-methyl-piperidin-1-yl)-methanone]",632
16,"CCN(CCOC)C(=O)c1cc(N)c2nc(-c3ccco3)nn2c1 [Example 45, 8-Amino-2-furan-2-yl-[1,2,4]triazolo[1,5-a]pyridine-6-carboxylic acid ethyl-(2-methoxy-ethyl)-amide]",506
17,"CC(C)N(Cc1ccccc1)C(=O)c1cc(N)c2nc(-c3ccco3)nn2c1 [Example 36, 8-Amino-2-furan-2-yl-[1,2,4]triazolo[1,5-a]pyridine-6-carboxylic acid benzyl-isopropyl-amide]",229
18,"Cc1ccc(-c2nc3c(N)cc(C(=O)N4CCCC4C)cn3n2)s1 (stereo not shown) [Example 96, [8-Amino-2-(5-methyl-thiophen-2-yl)-[1,2,4]triazolo[1,5-a]pyridin-6-yl]-(2-methyl-pyrrolidin-1-yl)-methanone]",154
